The source of these data is PMC7026080, “Phenotypic high-throughput screening platform identifies novel chemotypes for necroptosis inhibition” (Cell Death Discovery, 2020).

≈ marks a conversion by molar mass, not a printed value. Where two headings read alike, the source gives them in different places.

The subject of one data set is L929 cells. Nature of the data set: Necroptosis inhibition in L929 cells + mTNF-α, 8 h, AK release. Type of data set: cell-based, murine. The following applies: for EC50: Mus musculus, L929. As to the method: A total of 251,328 small-molecule compounds were screened in L929 cells incubated with mTNF-α alone or together with test compounds at 31.7 μM for 8 h. Intraplate controls for data normalization consisted of untreated cell wells. L929 cells co-incubated with mTNF-α and SN-2668/Nec-1 served as positive controls (Fig. S2A). […] In HTS step one (primary screening), valid data was obtained for 247,738 compounds, 3353 of which were within the established hit selection criteria, corresponding to a 1.4% hit rate for the full library (Fig. 1a).
(§1) The second screening step aimed to determine the EC50 of selected compounds. L929 and Jurkat FADD^-/- cells were co-incubated with TNF-α and test compounds at 10-point concentration range (0.004–100 μM) for 8 h. Compound-mediated inhibition of necroptosis was assessed through AK release and the EC50 calculated. Jurkat cells were used to validate results in human cells. […] In HTS step two, 4374 compounds (3353 hits from HTS step one plus 1021 near neighbours) were evaluated for potency by dose-response curves. From those, 1,438 hit compounds passed the selection criteria on both cell lines, corresponding to a […] hit rate.
(§2) L929 cells were co-incubated for 8 h with mTNF-α and test compounds at 31.7 μM after which AK release was measured. […] Hit compounds were then evaluated for apoptosis modulation. Further details are provided as Supplementary Information.
(§3) Cell treatments and viability assays. Cells were seeded in 384- or 96-well plates at 1000 or 8000 cells/well (in 12.5 μL or 100 μL final volume), respectively, using a Multidrop^TM Combi Reagent Dispenser (ThermoFisher Scientific). For inducing necroptosis, L929 and Jurkat FADD^-/- cells were incubated with 10 ng/mL mTNF-α and hTNF-α respectively; BV2 cells with 25 µM Z-VAD-FMK, and HT29 cells with 20 ng/mL hTNF-α, 250 nM Smac mimetic BV6 and 10 μM Z-VAD-FMK. Cells were co-incubated in the presence of test compounds at target concentrations for 8 or 24 h. Nec-1 at 29.2 μM was used as positive control. For apoptosis assays, Jurkat E6.1 cells were co-incubated with 0.5 μg/mL CHX and test compounds at target concentrations for 8 h. In cytotoxicity assays, HepG2 and L929 cells were seeded in 96-well plates at 5000 cells/well, in 100 μL final volume. Twenty-four hours after seeding, cells were incubated with test compounds at 50 and 100 μM for additional 24 h.
(§4) Adenylate kinase (AK) and lactate dehydrogenase (LDH) release from damaged cells were measured using the Toxilight BioAssay Kit (Lonza, Basel, Switzerland) and the Cytotoxicity Detection Kit (Roche Diagnostics GmbH, Mannheim, Germany), respectively. Adenosine triphosphate (ATP) metabolism was evaluated using CellTiter-Glo^TM Luminescent Cell Viability Assay (Promega, Madison, WI, USA). Apoptosis was determined by the measurement of caspase-3/-7 activity using the Caspase-Glo® 3/7 Assay (Promega) according to the manufacturer’s instructions. Cellular metabolic activity was measured using CellTiter 96® Aqueous Non-Radioactive Cell Proliferation (MTS) Assay (Promega). Luminescence signal was recorded using a GloMax®-MultiDetection System (Promega) and absorbance with a Model 680 microplate reader (Bio-Rad Laboratories Inc, Hercules, CA, USA).
Primary high-throughput screen. Test compounds were arrayed in 384-well white microtiter plates and screened for their potential as necroptosis inhibitors at 32 μM target concentration. Eight hours after co-incubation of L929 cells with mTNF-α and test compounds, AK release was evaluated. […]

The nature of data set [1]: MDCK-MDR1 cell-based permeability assay. Type of data set: in vitro ADME. The following applies: dog.
A further data set in a line: Aqueous solubility. Type of data set: physicochemical. The following applies: read-out: Aqueous solubility, concentration.
The subject of the next data set is Jurkat FADD-/- cells. Put plainly: Necroptosis inhibition in Jurkat FADD-/- cells + TNF-α, 8 h, AK release. Particulars: Homo sapiens. Type of data set: cell-based. As to the method: as §1, §2
as §3, with “In cytotoxicity assays, HepG2 and L929 cells were seeded in 96-well plates at 5000 cells/well, in 100 μL final volume. Twenty-four hours after seeding, cells were incubated with test compounds at 50 and 100 μM for additional 24 h.” left out
as §4
Primary high-throughput screen. […] Eight hours after co-incubation of L929 cells with mTNF-α and test compounds, AK release was evaluated. […] Eight hours after co-incubation of L929 or Jurkat FADD^-/- cells with TNF-α and test compounds, AK release was evaluated. […]

Where [2] appears, read: 8 h, 10 ng/mL mTNF-α, AK release, screening step 1 as printed, read-out: EC50 L929 + TNF-α (in vitro).
[3] abbreviates: read-out: L929 + TNF-α (in vitro) pEC50 (converted).
The mark [4] stands for this setting: 8 h, screening step 2, AK release, read-out: EC50 Jurkat FADD(-/-) + TNF-α (in vitro).
[5] abbreviates: read-out: Jurkat FADD (-/-) (in vitro) pEC50 (converted).

As for `CN1C(=O)C(Cc2c[nH]c3ccccc23)NC1=S` (stereo not drawn) [Nec-1, necrostatin-1], in the data set on L929 cells (DMSO = 0, no addition = −100, L929, 10 ng/mL mTNF-α, 8 h, Nec-1 at 29.2 μM), the Membrane integrity is > −100 percentage of control. Also, the EC50 was 1250 nM in the data set with L929 cells (setting [2]), 1260 nM in the data set with L929 cells (setting [3]), 390 nM with Jurkat FADD-/- cells (setting [4]) and 398 nM in the data set on Jurkat FADD-/- cells (setting [5]). Moreover, in data set [1], the Papp A→B was found to be 31 ×10⁻⁶ cm/s. In addition, in data set [1], the Papp B→A turned out to be 34 ×10⁻⁶ cm/s. Also, the solubility in the data set “Aqueous solubility” came to 97 µM (≈ 25.2 µg/mL).

`O=C(c1cnn(Cc2ccccc2)c1)N1CCOc2ccccc2C1` [SN-6109]: the EC50 is 6300 nM in the data set with L929 cells (setting [2]), 6310 nM with L929 cells (setting [3]), 630 nM with Jurkat FADD-/- cells (setting [4]) and 631 nM in the data set on Jurkat FADD-/- cells (setting [5]). This compound showed a Papp A→B in data set [1] of 35 ×10⁻⁶ cm/s. For the same compound, in data set [1], the Papp B→A came to 18 ×10⁻⁶ cm/s. For the same compound, in “Aqueous solubility” (aqueous medium (not further specified)), the solubility was determined as 47 µM (≈ 15.7 µg/mL).
